According to patent publication US20230027066A1 (Urovant Sciences GmbH, priority 2019, published 2023):

What was measured:
[1] = Phase 3 study (75 mg), adverse events; format: in vivo, human
Description: Study assessments of safety included adverse events, physical examinations, vital signs (and weight), and clinical laboratory tests
An adverse event is any untoward medical occurrence in a patient or clinical investigation patient, temporally associated with the use of a medicinal product, whether or not considered related to the medicinal product.
Adverse Events of Clinical Interest for this study included:
Safety analyses were conducted using the SAF and summarized by treatment group as treated. The treatment-emergent period is defined as the period of time from the first dose date of the double blinded Study Treatment through 28 days after the last dose of Study Treatment, or the date of initiation of another investigational agent or surgical intervention or rollover to the extension study, whichever occurs first. Safety was assessed through summaries of adverse events, the frequency of treatment discontinuations due to adverse events, and clinical laboratory evaluations.

[2] = test system: men and women with overactive bladder; experiment: 40-week extension study (52 weeks), efficacy; format: in vivo, human
From the text: All CFB calculations used the parent study Baseline value.

[3] = 40-Week treatment group, Full Analysis Set Extension
[4] = 40-Week treatment group, multiple imputation

Cc1ccc(O)c([C@H](CCN(C(C)C)C(C)C)c2ccccc2)c1 [Tolterodine ER, tolterodine, reference compound]
AE: ALT increase ([1]; 12-week study): 1 (0.2) n (%)
AE: AST increase ([1]; 12-week study): 1 (0.2) n (%)
AE: Atrial fibrillation ([1]; 12-week study): 1 (0.2) n (%)
AE: Bilirubin increased ([1]; 12-week study): 1 (0.2) n (%)
AE: Blood creatinine increased ([1]; 12-week study): 1 (0.2) n (%)
AE: Blood pressure diastolic increased ([1]; 12-week study): 1 (0.2%) n (%)
AE: Blood pressure increased ([1]; 12-week study): 8 (1.9) n (%)
AE: Cardiac failure congestive ([1]; 12-week study): 0 n (%)
AE: Cerebrovascular accident ([1]; 12-week study): 1 (0.2) n (%)
AE: Chest discomfort ([1]; 12-week study): 0 n (%)
AE: Chest pain ([1]; 12-week study): 0 n (%)
AE: Chronic kidney disease ([1]; 12-week study): 0 n (%)
AE: Constipation ([1]; 12-week study): 6 (1.4) n (%)
AE: Cystitis ([1]; 12-week study): 1 (0.2) n (%)
AE: Diarrhea ([1]; 12-week study): 9 (2.1) n (%)
AE: Dizziness ([1]; 12-week study): 4 (0.9) n (%)
AE: Drug hypersensitivity ([1]; 12-week study): 0 n (%)
AE: Dry mouth ([1]; 12-week study): 28 (6.5) n (%)
AE: Dysuria ([1]; 12-week study): 0 n (%)
AE: Escherichia urinary-tract infection ([1]; 12-week study): 1 (0.2%) n (%)
AE: Fatigue ([1]; 12-week study): 6 (1.4) n (%)
AE: Glomerular filtration rate decreased ([1]; 12-week study): 2 (0.5) n (%)
AE: Headache ([1]; 12-week study): 11 (2.6) n (%)
AE: Hepatic enzyme increased ([1]; 12-week study): 1 (0.2) n (%)
AE: Hot flush ([1]; 12-week study): 1 (0.2) n (%)
AE: Hyperglycemia ([1]; 12-week study): 2 (0.5) n (%)
AE: Hypertension ([1]; 12-week study): 11 (2.6) n (%)
AE: Hypotension ([1]; 12-week study): 1 (0.2) n (%)
AE: Nasopharyngitis ([1]; 12-week study): 11 (2.6) n (%)
AE: Nausea ([1]; 12-week study): 5 (1.2) n (%)
AE: Pollakiuria ([1]; 12-week study): 0 n (%)
AE: Positional vertigo ([1]; 12-week study): 1 (0.2) n (%)
AE: Residual urine volume increased ([1]; 12-week study): 6 (1.4) n (%)
AE: Somnolence ([1]; 12-week study): 2 (0.5) n (%)
AE: Syncope ([1]; 12-week study): 1 (0.2) n (%)
AE: Tachycardia ([1]; 12-week study): 1 (0.2) n (%)
AE: Transaminases increased ([1]; 12-week study): 0 n (%)
AE: Type 2 diabetes mellitus ([1]; 12-week study): 0 n (%)
AE: Urinary retention ([1]; 12-week study): 3 (0.7) n (%)
AE: Urinary tract infection ([1]; 12-week study): 25 (5.8) n (%)
AE: Vertigo ([1]; 12-week study): 1 (0.2) n (%)
AE: Back pain ([1]; patients ≥75 years): 2.1%
AE: Diarrhea ([1]; patients ≥75 years): 4.2%
AE: Dyspnea ([1]; patients ≥75 years): 0%
AE: Nausea ([1]; patients ≥75 years): 0%
AE: Rash ([1]; patients ≥75 years): 0%
AE: Somnolence ([1]; patients ≥75 years): 2.1%
AE: Upper respiratory tract infection ([1]; patients ≥75 years): 0%
AE: Urinary retention ([1]; patients ≥75 years): 4.2%
AE: Urinary tract infection ([1]; patients ≥75 years): 8.3%
Overall AE rate ([1]; patients ≥75 years): 50.0%
Any AE of clinical interest, % ([1]; safety population): (8.8%)
Patients with at least one treatment emergent serious AEs, % ([1]; safety population): (2.3) %
SAEs resulting in death, % ([1]; safety population): (0.2) %
SAEs: Hospitalization, % ([1]; safety population): (1.9) %
SAEs: other serious criteria, % ([1]; safety population): (0.5) %
Patients with at least one treatment emergent adverse events, % ([1]; safety population, 12-week study): (38.6) %
Tachycardia rate ([1]; tolterodine ER 4 mg once daily, 12 weeks): 0.2%
Patients with at least one Serious AE ([1]; vibegron 75 mg or tolterodine ER 4 mg once daily, 12 weeks): 2.3%
Micturitions, Change from Baseline at Week 52, Mean ([2]; 40-Week arm): −2.6
UUI Episodes, Change from Baseline at Week 52, Mean ([2]; 40-Week arm): −1.5
UUI Episodes, Week 52 Mean ([2]; 40-Week arm): 1.1
Urgency Episodes, Change from Baseline at Week 52, Mean ([2]; 40-Week arm): −3.5
Urgency Episodes, Week 52 Mean ([2]; 40-Week arm): 3.9
Micturitions, Week 52 Mean ([2]; 40-Week arm, Full Analysis Set Extension): 8.8
Total urinary incontinence episodes, Change from Baseline Mean at Week 52 [2, 3]: −1.9
Total urinary incontinence episodes, Week 52 Mean [2, 3]: 1.2
UUI Episodes 75% Responders at Week 52 [2, 4]: 54.0%
UUI Episodes 100% Responders at Week 52 [2, 4]: 37.8%
Urgency Episodes 50% Responders at Week 52 [2, 4]: 50.1%
Micturitions, Change from Baseline at Week 52, Mean ([2]; 52-Week arm): −2.3
UUI Episodes, Change from Baseline at Week 52, Mean ([2]; 52-Week arm): −1.7
UUI Episodes, Week 52 Mean ([2]; 52-Week arm): 1.4
Urgency Episodes, Change from Baseline at Week 52, Mean ([2]; 52-Week arm): −3.5
Urgency Episodes, Week 52 Mean ([2]; 52-Week arm): 4.7
Micturitions, Week 52 Mean ([2]; 52-Week arm, Full Analysis Set Extension): 9.0
